This series deals with Tetranychus urticae. The series is described as follows: Efficacy test against Tetranychus urticae (adult mites on kidney bean plant, spray). The series is classed as in vivo. To be noted: emulsion diluted to 31 ppm, sprayed; organic phosphorous-resistant adult females; 3 days after spraying. How it is done: Efficacy Test Against Tetranychus urticae
Seventeen organic phosphorous-resistant adult female Tetranychus urticae mites were inoculated onto the first leaves of a kidney bean plant planted in a No. 3 pot 7 to 10 days after germination. Next, an emulsion was prepared having the formula indicated in the aforementioned Preparation example 2. […] The kidney bean plant was then placed in a temperature-controlled room at a temperature of 25° C. and humidity of 65%. The adult insect mortality rates were investigated 3 days after spraying. The test was repeated twice.

Molecules are shown by their SMILES.

In turn, `COC(C)COc1cc(C(F)(F)F)ccc1OC1CC2CCCC(C1)N2Oc1ccc(C(F)(F)F)cn1` (stereo not shown) [H-81] yielded an insect mortality rate not below 80%.

The values above are taken from US8980912B2, “Cyclic amine compound and acaricide” (Nippon Soda Co., Ltd., priority 2010, dated 2015).
